Data from ChEMBL document CHEMBL3430912, “GSK Tres Cantos Anti-Kinetoplastid Screening (TCAKS) Data”.

What was measured:
Trypanosoma cruzi [1] = experiment: GSK_TCAKS: pIC50 Trypanosoma cruzi viability assay using beta-GAL activity. This assay was run at single shot at 5uM compound concentration per well. The biological reagents consisted of NIH-3T3 host cells and trypomastigotes parasitic cells; both cell types were set to a 3.3 * 10^5 cells/mL dilution in assay DMEM by means of a CASY cell counter device using a 60um capillary. 6 uL of the mixture were dispensed per well (about 1 * 10^3 host-cells and 1 * 10^3 parasites) with a Multidrop Combi dispenser. […] In all wells, the percentage of DMSO never exceeded 0.5%. Plates incubated for four days at 37C, 5% CO2. The substrate used for the assay fluorescence intensity (FLINT) readout was resorufin-beta-D-galactopiranoside (Sigma-Aldrich) at 5uM per well. It was diluted in PBS supplemented with the soft detergent Igepal (Fluka).; type: functional, organism-based, Mus musculus; details: Tulahuen, NIH3T3
Trypanosoma cruzi [2] = experiment: (§1) GSK_TCAKS: pIC50 Trypanosoma cruzi Imaging: Infected Cells. […] Cells were then washed once with PBS before infection. T. cruzi trypomastigotes, collected at days 5 to 8 after infection from LLC-MK2 parasite infected cultures, were allowed to swim out for 4h at 37C from a centrifuged pellet (2,500 rpm/10 min/room temperature). Trypomastigotes were then collected and counted in a CASY Cell Counter. Trypomastigotes, in supplemented DMEM, were added to H9c2 cultures in a multiplicity of infection of 1 and incubated for 18 h. Cells were washed once with PBS before incubation of the infected H9c2 monolayer with trypsin (Life-Technologies) to detach cells from the flask. Cells were counted in a CASY Cell Counter using a 150 um capillary and their density set at 5 * 10^4 cells per mL in supplemented assay DMEM. Infected H9c2 were dispensed into 384-well poly-lysine coated assay plates at 50uL per well using a Multidrop Combi dispenser. After seeding them, the plates were incubated at 37C, 5% CO2 for 72h. Cultures were then fixed and stained by addition of 50 uL of a solution containing 8% formaldehyde and 4 uM DRAQ5 DNA dye (BioStatus, UK) per well. […] Five images were collected per well for reliable statistical analysis. Automated image analysis was performed with a script developed on Acapella High Content Imaging and Analysis Software (PerkinElmer). Output: percentage of infected cells per well as a second infection marker.; type: functional, organism-based, Rattus norvegicus; details: H9c2, 4 h
Trypanosoma cruzi [3] = experiment: GSK_TCAKS: pIC50 Trypanosoma cruzi Imaging: Amastigotes/Cell. […] Cells were then washed once with PBS before infection. T. cruzi trypomastigotes, collected at days 5 to 8 after infection from LLC-MK2 parasite infected cultures, were allowed to swim out for 4h at 37C from a centrifuged pellet (2,500 rpm/10 min/room temperature). Trypomastigotes were then collected and counted in a CASY Cell Counter. Trypomastigotes, in supplemented DMEM, were added to H9c2 cultures in a multiplicity of infection of 1 and incubated for 18 h. Cells were washed once with PBS before incubation of the infected H9c2 monolayer with trypsin (Life-Technologies) to detach cells from the flask. Cells were counted in a CASY Cell Counter using a 150 um capillary and their density set at 5 * 10^4 cells per mL in supplemented assay DMEM. Infected H9c2 were dispensed into 384-well poly-lysine coated assay plates at 50uL per well using a Multidrop Combi dispenser. After seeding them, the plates were incubated at 37C, 5% CO2 for 72h. Cultures were then fixed and stained by addition of 50 uL of a solution containing 8% formaldehyde and 4 uM DRAQ5 DNA dye (BioStatus, UK) per well. […] Five images were collected per well for reliable statistical analysis. Automated image analysis was performed with a script developed on Acapella High Content Imaging and Analysis Software (PerkinElmer). Output: number of amastigotes per cell as infection level measurement.; type: functional, organism-based, Rattus norvegicus; details: H9c2, 4 h
Trypanosoma cruzi [4] = experiment: as §1, with “H2C9” for “Trypanosoma cruzi”, “H9c2 Host Cardiomyocytes.” for “Infected Cells.”, “Number” for “percentage”, “H9c2 Host Cardiomyocytes nuclei to determine drug-related cytotoxicity.” for “infected cells per well as a second infection marker.”; type: functional, organism-based, Rattus norvegicus; details: H9c2, 4 h
Leishmania donovani [5] = experiment: GSK_TCAKS: pIC50 Leishmania donovani viability assay using fluorescence intensity. Assay plates (1536-well) were prepared by adding 30nL per well of compound. For single shot assay, the final compound concentration was 5uM. […] Briefly, eGFP LdBOB axenic amastigotes were harvested, fixed and counted in a CASY cell counter (Roche-Applied Science). A final concentration of 1.5 * 10^5 cells per well were prepared in amastigote media containing 500 U/mL penicillin/streptomycin (Invitrogen) and 6uL was dispensed to each experimental well using a Multidrop Combi dispenser (Thermo Scientific). 6uL of assay media was dispensed to control columns used as reference for 100% compound response. Following incubation for 72 h at 37C, 5% CO2, 2 uL of resazurin was added to each well at a final concentration of 0.5 mM in phosphate buffered saline (PBS) with IGEPAL (Sigma-Aldrich), 0.05% (v/v).; type: functional, organism-based
Leishmania donovani [6] = experiment: (§2) GSK_TCAKS: pIC50 Leishmania donovani Imaging: Infected Macrophages. Assay plates (384-well) were prepared by adding 250nL of compound to each well. For single shot assay, the final compound concentration was 5 uM. […] Automated image analysis was performed with a script developed on Acapella High Content Imaging and Analysis Software (PerkinElmer). Output: Percent of infected macrophage cells were reported for each well.; type: functional, organism-based, Homo sapiens; details: THP-1
Leishmania donovani [7] = experiment: as §2, with “Amastigotes/Macrophages.” for “Infected Macrophages.”, “Average number” for “Percent”, “amastigotes per” for “infected”, “cell” for “cells”; type: functional, organism-based, Homo sapiens; details: THP-1
Leishmania donovani [8] = experiment: as §2, with “THP-1 Host” for “Infected”, “THP-1 cell count” for “Percent of infected macrophage cells”; type: functional, organism-based, Homo sapiens
[9] = system: Trypanosoma brucei brucei; experiment: GSK_TCAKS: pIC50 Trypanosoma brucei viability assay using fluorescence intensity. Assay plates (1536-well) were prepared by dispensing 25nL of compound solution per well using an Echo acoustic dispenser (Labcyte).; type: functional, organism-based; details: Lister 427, 2 h
[10] = system: Trypanosoma brucei brucei; experiment: GSK_TCAKS: pIC50 Trypanosoma brucei viability assay using luminiscence. Assay plates (1536-well) were prepared. T. brucei cultures were harvested and counted in a CASY cell counter. A parasite suspension was prepared at a final concentration of 5 * 10^4 cells/mL in complete HMI9 medium and 6uL was dispensed to all wells containing compounds using a Multidrop Combi dispenser. 6uL of HMI9 media with 0.4% DMSO were dispensed to control columns. Plates were incubated for 24 h at 37C, 5% CO2 then tempered for 10 min at room temperature. ATP content was quantified by adding 4 uL of CellTiter-Glo Reagent (Promega) according to the manufacturer's instructions. Luminescence was measured using a ViewLux.; type: functional, organism-based; details: Lister 427, CASY
[11] = GSK_TCAKS: pIC50 HepG2 human cell line viability assay using luminiscence. […] Seeding density was checked to ensure that new mono-layers were not more than 50% confluent at the time of harvesting. Cell suspension was added to 500 mL of the same medium at a final density of 1.2 * 10^5 cells/mL. This cell suspension was dispensed (25 uL, 3000 cells per well) into 384-well clear-bottom plates using a Multidrop Combi dispenser. Prior to addition of the cell suspension, the screening compounds (250 nL) were pre-dispensed into the plates with an Echo liquid handler. Plates were incubated for 48 h at 37C, 5% CO2. After incubation, plates equilibrated at room temperature for 30 min before proceeding to develop the luminescent signal. The signal developer, CellTiter-Glo Reagent, was allowed to equilibrate at room temperature for 30 min and added to the plates (25uL per well) using a Multidrop Combi dispenser. Plates were left for 10 min at room temperature for stabilization and then read using a ViewLux.; type: toxicity, cell-based
NIH3T3 = experiment: GSK_TCAKS: pIC50 NIH 3T3 cell line viability assay using luminiscence. Tissue culture surface treated assay plates (1536-well) were used. […] The 100% cells survival control was determined exposing the host-cells to a 0.5% DMSO concentration, whereas the 100% toxicity control was achieved by seeding the cells in presence of Amphotericin B at 50uM. Plates were incubated for four days at 37C, 5% CO2. The assay readout was developed by addition of 5uL of CellTiter-Glo Reagent following the manufacturer's instructions. Luminiscence was measured using a ViewLux.; type: functional, cell-based; details: Mus musculus, NIH3T3, 96 h
[12] = target: Sterol 14-alpha demethylase (Trypanosoma cruzi (strain CL Brener), UniProt Q7Z1V1); experiment: GSK_TCAKS: pIC50 CYP51 from Trypanosoma cruzi.; type: functional
Sequence of Sterol 14-alpha demethylase (Q7Z1V1 whole entry): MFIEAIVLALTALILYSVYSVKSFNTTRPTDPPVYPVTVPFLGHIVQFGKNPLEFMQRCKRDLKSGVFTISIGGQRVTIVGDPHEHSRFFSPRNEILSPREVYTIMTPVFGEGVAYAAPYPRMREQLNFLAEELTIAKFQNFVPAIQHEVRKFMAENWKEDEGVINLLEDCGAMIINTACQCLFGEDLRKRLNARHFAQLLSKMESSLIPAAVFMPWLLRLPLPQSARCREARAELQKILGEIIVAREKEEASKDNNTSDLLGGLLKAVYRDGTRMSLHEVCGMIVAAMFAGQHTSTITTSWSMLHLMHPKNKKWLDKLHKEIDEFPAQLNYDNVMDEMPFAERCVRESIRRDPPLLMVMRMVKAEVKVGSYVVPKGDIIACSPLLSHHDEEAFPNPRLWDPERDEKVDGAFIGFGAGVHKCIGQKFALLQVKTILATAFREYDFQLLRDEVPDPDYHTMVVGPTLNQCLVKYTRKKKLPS

| Structure (SMILES) | IC50 (Trypanosoma cruzi [1]) [µM] | IC50 (Trypanosoma cruzi [2]) [µM] | IC50 (Trypanosoma cruzi [3]) [µM] | IC50 (Trypanosoma cruzi [4]) [µM] | IC50 (Leishmania donovani [5]) [µM] | IC50 (Leishmania donovani [6]) [µM] | IC50 (Leishmania donovani [7]) [µM] | IC50 (Leishmania donovani [8]) [µM] | IC50 [9] [µM] | IC50 [10] [µM] | IC50 at 48 h [11] [µM] | IC50 (NIH3T3) [µM] | IC50 [12] [µM] |
| --- | --- | --- | --- | --- | --- | --- | --- | --- | --- | --- | --- | --- | --- |
| COc1ccc(C(=O)Nc2cc(C(F)(F)F)ccc2N2CCOCC2)c(OC)c1 | 1 | 0.794 | 0.316 | > 50.1 | 5.01 | 10 | 7.94 | 12.6 | 10 | 25.1 | > 100 | 31.6 | > 100 |
| COc1ccc(NS(=O)(=O)c2cc(NC(=O)Cc3ccc(C)cc3)ccc2N2CCOCC2)cc1 | 2 | 5.01 | 2.51 | > 50.1 | 39.8 | > 50.1 | > 50.1 | > 50.1 | 5.01 | 7.94 | > 100 | 25.1 | > 100 |
| NC(=O)c1ccccc1Nc1nc(NC2CCCCC2)nc2[nH]ccc12 | 1 | 1 | 1 | 25.1 | 20 | 12.6 | 12.6 | 10 | 0.501 | 10 | 20 | 25.1 | > 100 |
| CCCCn1nnnc1CSc1nc(C)cc(C)c1C#N | 0.316 | 0.2 | 0.1 | > 50.1 | 1.26 | 3.98 | 3.16 | > 50.1 | > 39.8 | > 39.8 | > 100 | > 50.1 | 50.1 |
| O=C(CSc1ccc(F)cc1)N[C@@H](Cc1c[nH]cn1)C(=O)NCCc1ccccc1 | 0.447 | 0.501 | 0.501 | > 50.1 | > 50.1 | > 50.1 | > 50.1 | > 50.1 | > 39.8 | > 39.8 | > 100 | 12.6 | 0.0794 |
